What all share (assay type): in vivo
Test [1] has as its system Pseudoperonospora cubensis (PSPECU). Kind of test: Cucumber downy mildew foliar protectant test. The note with it: 200 ppm foliar, inoculated one day after treatment, read-out: Activity against fungal diseases PSPECU. As for the experimental part:
The plants were inoculated with the fungus one day after treatment. ***=80-100% control; **=50-79% control; *=0-49% control. It will be understood by those in the art that the efficacy of the compounds against the foregoing fungi establishes the general utility of the compounds as fungicides. The activity of the compounds as effective fungicides was determined by applying the compounds to plants and observing control of fungal disease. […] All plants were inoculated with spores of the fungus the day after treatment, then incubated in an environment conducive to disease development. Disease severity was evaluated 4 to 25 days later, depending on the speed of disease development. The following experiments were performed in the laboratory to determine the fungicidal efficacy of the compounds of the invention. Cucumber Downy Mildew (Causal Agent Pseudoperonospora cubensis; Bayer Code […]): Cucumber plants (variety “Bush Champion' or 'Bush Pickle Hybrid') were grown from seed in a soil-less peat-based potting mixture (Metromix) until the first true leaf was 20-80% expanded. Each pot contained 1 seedling. These plants were sprayed until wet with the formulated test compound. On the following day, the leaves were inoculated with an aqueous suspension of downy mildew sporangia and the plants were kept in high humidity for one day to permit sporangia to germinate and infect the leaf. The plants were then incubated in a growth chamber until disease developed on untreated control plants. Table 1 presents the activity of typical compounds of the present invention when evaluated in these experiments. The effectiveness of the test compounds at controlling disease when sprayed on leaves was determined by assessing the severity of disease on treated plants, then converting the severity to percent control based on the level of disease on untreated, inoculated plants.

Test [2] concerns Puccinia recondita tritici (PUCCRT). As to the kind of experiment: Leaf rust of wheat foliar protectant test. The conditions noted are these: read-out: Activity against fungal diseases PUCCRT; for pest or weed control at 200 ppm: 200 ppm foliar, inoculated one day after treatment; for pest or weed control at 3 ppm: foliar, Tested at 3 ppm (footnote a). As for the experimental part:
(§1) The plants were inoculated with the fungus one day after treatment. ***=80-100% control; **=50-79% control; *=0-49% control. It will be understood by those in the art that the efficacy of the compounds against the foregoing fungi establishes the general utility of the compounds as fungicides. The activity of the compounds as effective fungicides was determined by applying the compounds to plants and observing control of fungal disease. […] All plants were inoculated with spores of the fungus the day after treatment, then incubated in an environment conducive to disease development. Disease severity was evaluated 4 to 25 days later, depending on the speed of disease development. The following experiments were performed in the laboratory to determine the fungicidal efficacy of the compounds of the invention. […] Each pot contained 3-8 seedlings. These plants were sprayed until wet with the formulated test compounds. On the following day, the leaves were inoculated with an aqueous spore suspension of Puccinia recondita tritici and the plants were kept in high humidity overnight to permit spores to germinate and infect the leaf. The plants were then transferred to a greenhouse until disease developed on untreated control plants. Table 1 presents the activity of typical compounds of the present invention when evaluated in these experiments. The effectiveness of the test compounds at controlling disease when sprayed on leaves was determined by assessing the severity of disease on treated plants, then converting the severity to percent control based on the level of disease on untreated, inoculated plants.

For test [3], the system named is Magnaporthe grisea = Pyricularia oryzae (PYRIOR). Kind of test: whole plant or invertebrate. The conditions noted are these: foliar, read-out: Activity against fungal diseases PYRIOR.
In test [4] the test system is Septoria tritici (SEPTTR). As to the kind of experiment: Septoria blotch of wheat foliar protectant test. The conditions noted are these: Zymoseptoria tritici, read-out: Activity against fungal diseases SEPTTR; for pest or weed control at 200 ppm: 200 ppm foliar, inoculated one day after treatment; for pest or weed control at 25 ppm: foliar, Tested at 25 ppm (footnote b). Here is the method:
as §1, with “3-10” for “3-8”, “compound.” for “compounds.”, “Septoria” for “Puccinia recondita”, “(one day in a dark dew chamber followed by three days in a lighted dew chamber)” for “overnight”

On to `N#Cc1ccnc(Oc2ccc(CCNc3ncnc4c(F)ccc(F)c34)cc2)c1` [Compound 2], for which the pest or weed control at 200 ppm is 80 to 100% in test [1], 80 to 100% in test [2], 80 to 100% in test [3] and 0 to 49% in test [4].

For the molecule `Oc1ccc(CCNc2ncnc3c(F)ccc(F)c23)cc1` [Compound 4], the pest or weed control at 200 ppm is 50 to 79% in test [1], 50 to 79% in test [2], 0 to 49% in test [3] and 0 to 49% in test [4].

Turning to `Fc1cc(C(F)(F)F)cnc1Oc1ccc(CCNc2ncnc3c(F)ccc(F)c23)cc1` [Compound 5], the pest or weed control at 200 ppm in test [1], in test [2] and in test [3] was 80 to 100% throughout. In test [4], the pest or weed control at 25 ppm was 80 to 100%.

With `Fc1ccc(F)c2c(NCCc3ccc(Oc4ncccc4C(F)(F)F)cc3)ncnc12` [Compound 13], the pest or weed control at 3 ppm in test [2] lay in the range of 80 to 100%. The pest or weed control at 25 ppm in test [4] fell in the range of 80 to 100%.

On to `Cc1cc(C(F)(F)F)cc(Oc2cc(C)c(CCNc3ncnc4c(F)ccc(F)c34)cc2C)n1` [Compound 22], for which the values for the pest or weed control at 200 ppm in test [2] and in test [3] were 80 to 100% and 50 to 79%, respectively. The pest or weed control at 25 ppm in test [4] was in the range of 80 to 100%.

`COc1cc(CCNc2ncnc3c(F)cc(F)c(F)c23)ccc1O` [Compound 33]: the pest or weed control at 3 ppm in test [2] is 0 to 49%. Also, the pest or weed control at 25 ppm in test [4] lay in the range of 0 to 49%.

As for `Oc1cccc(CCNc2ncnc3c(F)ccc(F)c23)c1` [Compound 35], the figures for the pest or weed control at 200 ppm in test [1] and in test [2] were 80 to 100% and 50 to 79%, respectively.

Regarding `COC(=O)c1cnc(Oc2ccc(CCNc3ncnc4c(F)ccc(F)c34)cc2C)cc1C(F)(F)F` [Compound 36], the pest or weed control at 200 ppm in test [1] and in test [2] was 80 to 100% each time. In addition, the pest or weed control at 25 ppm in test [4] was 0 to 49%.

Regarding `Oc1ccc(CCNc2ncnc3c(F)ccc(F)c23)cc1Br` [Compound 38], the pest or weed control at 200 ppm in test [1], in test [2] and in test [3] was 0 to 49% each time.

With `Fc1ccc(F)c2c(NCCc3ccc(Oc4ccnc(C(F)(F)F)c4)cc3)ncnc12` [Compound 71], the pest or weed control at 3 ppm in test [2] lay within 80 to 100%. Besides, the pest or weed control at 25 ppm in test [4] lay in the range of 80 to 100%.

For `Fc1cc(F)c2ncnc(NCCc3ccc(Oc4cc(C(F)(F)F)ccn4)c(Cl)c3)c2c1F` [Compound 92], the results for the pest or weed control at 200 ppm in test [2], in test [3] and in test [4] were 50 to 79%, 80 to 100% and 50 to 79%, respectively.

On to `Cc1cc(CCNc2ncnc3c(F)ccc(F)c23)ccc1Oc1nc(C(F)(F)F)nc(F)c1F` [Compound 102], for which the pest or weed control at 200 ppm in test [2] lay within 80 to 100%; in test [3] it was 80 to 100%; in test [4], 0 to 49%.

As for `Fc1ccc(F)c2c(NCCc3ccc(Oc4cc(Cl)nc(C(F)(F)F)n4)cc3)ncnc12` [Compound 103], the pest or weed control at 200 ppm in test [2] lay in the range of 80 to 100%; in test [3] it was 80 to 100%; in test [4], 0 to 49%.

`COc1cc(CCNc2ncnc3c(F)ccc(F)c23)ccc1Oc1cc(Cl)nc(C(F)(F)F)n1` [Compound 104]: the values for the pest or weed control at 200 ppm in test [2], in test [3] and in test [4] were 80 to 100%, 80 to 100% and 0 to 49%, respectively.

Consider `COc1ccc2c(c1)CC(Nc1ncnc3c(F)ccc(F)c13)C2` (centres unmarked) [Compound 105], for which the pest or weed control at 200 ppm in test [2] was 80 to 100%; in test [3], 80 to 100%; in test [4], 0 to 49%.

On to `Fc1ccc(F)c2c(NCCc3ccc(Oc4cc(C(F)(F)F)ncn4)cc3)ncnc12` [Compound 109], for which the pest or weed control at 200 ppm in test [2], in test [3] and in test [4] was 80 to 100% each time.

For the molecule `COc1ccc(C(C)Nc2ncnc3c(F)ccc(F)c23)cc1` (centres unmarked) [Compound 120], the pest or weed control at 200 ppm in test [2] lay within 80 to 100%; in test [4], 0 to 49%.

In the case of `Fc1ccc(F)c2c(OCCc3ccc(OCC(F)(F)F)cc3)ncnc12` [Compound 121], the pest or weed control at 3 ppm in test [2] was in the range of 0 to 49%. Moreover, the pest or weed control at 25 ppm in test [4] lay within 50 to 79%.

Consider `Fc1ccc(F)c2c(NCCc3ccc(Oc4cncc(C(F)(F)F)c4)cc3)ncnc12` [Compound 123], for which the pest or weed control at 3 ppm in test [2] is 80 to 100%. Besides, in test [4], the pest or weed control at 25 ppm lay in the range of 80 to 100%.

As for `Cc1ccnc(Oc2ccc(CCNc3ncnc4c(F)ccc(F)c34)cc2)c1` [Compound 128], in test [2], the pest or weed control at 3 ppm was 80 to 100%. The pest or weed control at 25 ppm in test [4] fell in the range of 50 to 79%.

With `CC(Cc1ccc(Oc2cc(C(F)(F)F)ccn2)cc1)Nc1ncnc2c(F)ccc(F)c12` (centres unmarked) [Compound 134], the pest or weed control at 3 ppm in test [2] was in the range of 80 to 100%. For the same molecule, in test [4], the pest or weed control at 25 ppm was 80 to 100%.

For `CC(Cc1ccc(Oc2cc(C(F)(F)F)ncn2)cc1)Nc1ncnc2c(F)ccc(F)c12` (centres unmarked) [Compound 135], the pest or weed control at 3 ppm in test [2] lay in the range of 80 to 100%. Moreover, the pest or weed control at 25 ppm in test [4] was in the range of 80 to 100%.

Turning to `CC(Cc1ccc(Oc2ccc(C(F)(F)F)cn2)cc1)Nc1ncnc2c(F)ccc(F)c12` (centres unmarked) [Compound 136], the pest or weed control at 3 ppm in test [2] lay within 80 to 100%. The pest or weed control at 25 ppm in test [4] lay within 80 to 100%.

`CC(Cc1ccc(Oc2ncc(C(F)(F)F)cc2F)cc1)Nc1ncnc2c(F)ccc(F)c12` (centres unmarked) [Compound 137]: the pest or weed control at 3 ppm in test [2] fell in the range of 50 to 79%. The pest or weed control at 25 ppm in test [4] lay in the range of 80 to 100%.

Regarding `CC(Cc1ccc(Oc2cnccc2C(F)(F)F)cc1)Nc1ncnc2c(F)ccc(F)c12` (centres unmarked) [Compound 138], in test [2], the pest or weed control at 3 ppm lay within 80 to 100%. For the same molecule, the pest or weed control at 25 ppm in test [4] lay within 80 to 100%.

Turning to `COc1ccc(C(C)CNc2ncnc3c(F)ccc(F)c23)cc1` (centres unmarked) [Compound 139], the pest or weed control at 3 ppm in test [2] fell in the range of 0 to 49%. Moreover, the pest or weed control at 25 ppm in test [4] lay in the range of 0 to 49%.

Regarding `CC(CNc1ncnc2c(F)ccc(F)c12)c1ccc(Oc2cnccc2C(F)(F)F)cc1` (centres unmarked) [Compound 141], the pest or weed control at 3 ppm in test [2] was in the range of 80 to 100%. In addition, the pest or weed control at 25 ppm in test [4] is 80 to 100%.

`CC(CNc1ncnc2c(F)ccc(F)c12)c1ccc(Oc2cc(C(F)(F)F)ncn2)cc1` (centres unmarked) [Compound 142]: the pest or weed control at 3 ppm in test [2] is 80 to 100%. The pest or weed control at 25 ppm in test [4] lay in the range of 80 to 100%.

As for `CC(CNc1ncnc2c(F)ccc(F)c12)c1ccc(Oc2ccc(C(F)(F)F)cn2)cc1` (centres unmarked) [Compound 143], in test [2], the pest or weed control at 3 ppm lay within 0 to 49%. For the same molecule, in test [4], the pest or weed control at 25 ppm is 80 to 100%.

For `CC(CNc1ncnc2c(F)ccc(F)c12)c1ccc(Oc2cc(C(F)(F)F)ccn2)cc1` (centres unmarked) [Compound 144], in test [2], the pest or weed control at 3 ppm was in the range of 80 to 100%. The pest or weed control at 25 ppm in test [4] lay in the range of 80 to 100%.

In the case of `CC(CNc1ncnc2c(F)ccc(F)c12)c1ccc(Oc2ncc(C(F)(F)F)cc2F)cc1` (centres unmarked) [Compound 145], in test [2], the pest or weed control at 3 ppm fell in the range of 0 to 49%. Further, the pest or weed control at 25 ppm in test [4] fell in the range of 50 to 79%.

The values are drawn from patent US9000162B2, “5,8-difluoro-4-(2-(4-(heteroaryloxy)-phenyl)ethylamino)quinazolines and their use as agrochemicals” (Dow AgroSciences LLC, priority 2008, dated 2015).
